Columns and labels:
[1] = system: OCI-Ly10 human B-cell lymphoma cell line xenograft; assay: Tumor growth inhibition in OCI-Ly10 xenografts; type: in vivo, male NOD SCID mice; conditions: for tumor growth during the dosing period: oral, 28 days
Procedure: A total of 65 male NOD-SCIO mice are used for the study. At the start of the study the animals are aged 6-8 weeks and weighed approximately 21-27 g. Animals are housed in IVC cages (up to 5 per cage) with individual mice identified by tail marking. All animals are allowed free access to a standard certified commercial diet and sanitized water during the study. The holding room is maintained under standard conditions: 20-24° C., 40-70% humidity and a 12 hr light/dark cycle. Animals are randomly assigned to treatment groups. OCI-Lyl0 cells are implanted subcutaneously into the flanks of male NOD SCID mice and allowed to grow to a volume of approximately 150-200 mm^3. […] The formulation used is 0.5% hydroxypropyl methylcellulose. The dosing volume is 10 mL/kg. An individual animal's dose is calculated from the bodyweight recorded on the day of dosing. Animals are dosed for 28 days. Bodyweight and health observation of animals is recorded daily for the duration of dosing.
Tumor volume is measured three times per week during the study.

TEC = TEC (Homo sapiens, UniProt P42680); assay: Kinase selectivity, radiolabeled ATP activity assay; type: biochemical; conditions: ATP near Km
Procedure: (§1) Each assay is performed at an ATP concentration close to the Km for each enzyme. […] BRK, CSK, ERBB4, FYN, MEK1, MEK2, TXK, and YES1 The inhibitory activity of the compound of Formula I on the enzymatic activity of these kinases and TEC is determined using a radiolabeled ATP activity assay conducted with an ATP concentration near the ATP Km for each enzyme. After co-incubation with a serial dilution of the compound of Formula I, the quantity of ^33P incorporated into a peptide substrate is measured and the data analyzed using standard curve fitting methods.

CSK = biological target: T1, CSK (Homo sapiens, UniProt P41240); assay: as above; type: biochemical
T1 construct: purchased Reaction Biology
T1 sequence (P41240 whole entry): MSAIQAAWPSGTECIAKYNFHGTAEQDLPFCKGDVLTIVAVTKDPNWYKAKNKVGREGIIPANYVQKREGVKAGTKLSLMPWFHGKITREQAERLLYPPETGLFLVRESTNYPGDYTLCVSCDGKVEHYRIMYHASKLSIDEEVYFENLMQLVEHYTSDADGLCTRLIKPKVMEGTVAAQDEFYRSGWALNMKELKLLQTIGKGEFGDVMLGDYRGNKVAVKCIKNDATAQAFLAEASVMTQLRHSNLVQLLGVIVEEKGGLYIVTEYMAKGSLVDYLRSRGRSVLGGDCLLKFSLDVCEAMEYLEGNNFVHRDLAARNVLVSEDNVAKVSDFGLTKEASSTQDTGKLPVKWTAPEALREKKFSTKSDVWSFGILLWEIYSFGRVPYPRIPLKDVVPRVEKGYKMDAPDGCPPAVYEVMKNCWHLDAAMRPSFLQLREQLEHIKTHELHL
Procedure: as §1

MEK1 = biological target: T2, MEK1 (Homo sapiens, UniProt Q02750); assay: as above; type: biochemical
T2 construct: purchased Reaction Biology
T2 sequence (Q02750 whole entry): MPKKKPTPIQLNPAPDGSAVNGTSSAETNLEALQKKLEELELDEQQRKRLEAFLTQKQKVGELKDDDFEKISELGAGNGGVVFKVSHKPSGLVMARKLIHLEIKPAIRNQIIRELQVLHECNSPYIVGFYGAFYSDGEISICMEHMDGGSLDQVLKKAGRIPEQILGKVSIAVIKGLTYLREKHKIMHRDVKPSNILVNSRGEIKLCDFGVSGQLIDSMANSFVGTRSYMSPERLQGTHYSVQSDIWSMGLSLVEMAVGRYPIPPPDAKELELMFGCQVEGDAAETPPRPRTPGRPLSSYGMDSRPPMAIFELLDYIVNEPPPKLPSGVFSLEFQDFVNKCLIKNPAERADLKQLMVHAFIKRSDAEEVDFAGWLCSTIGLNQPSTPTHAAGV
Procedure: as §1

FYN = biological target: T3, FYN (Homo sapiens, UniProt P06241); assay: as above; type: biochemical
T3 construct: purchased Reaction Biology
T3 sequence (P06241 whole entry): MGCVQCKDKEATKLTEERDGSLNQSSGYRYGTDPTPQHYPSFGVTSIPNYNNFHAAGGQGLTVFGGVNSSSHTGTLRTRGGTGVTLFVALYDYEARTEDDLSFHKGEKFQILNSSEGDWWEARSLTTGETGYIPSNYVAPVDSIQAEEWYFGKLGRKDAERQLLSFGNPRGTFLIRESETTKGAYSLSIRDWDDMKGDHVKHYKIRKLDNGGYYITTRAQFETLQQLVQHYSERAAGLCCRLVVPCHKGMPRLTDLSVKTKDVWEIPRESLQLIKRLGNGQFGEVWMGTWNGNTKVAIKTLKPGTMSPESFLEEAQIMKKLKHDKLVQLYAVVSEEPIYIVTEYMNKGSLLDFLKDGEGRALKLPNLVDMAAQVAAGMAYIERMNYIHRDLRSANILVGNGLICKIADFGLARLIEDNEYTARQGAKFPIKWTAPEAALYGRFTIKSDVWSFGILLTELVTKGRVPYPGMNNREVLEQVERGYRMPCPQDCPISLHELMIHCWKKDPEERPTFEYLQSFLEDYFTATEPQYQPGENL
Procedure: as §1

TXK = biological target: T4, TXK (Homo sapiens, UniProt P42681); assay: as above; type: biochemical
T4 construct: purchased Reaction Biology
T4 sequence (P42681 whole entry): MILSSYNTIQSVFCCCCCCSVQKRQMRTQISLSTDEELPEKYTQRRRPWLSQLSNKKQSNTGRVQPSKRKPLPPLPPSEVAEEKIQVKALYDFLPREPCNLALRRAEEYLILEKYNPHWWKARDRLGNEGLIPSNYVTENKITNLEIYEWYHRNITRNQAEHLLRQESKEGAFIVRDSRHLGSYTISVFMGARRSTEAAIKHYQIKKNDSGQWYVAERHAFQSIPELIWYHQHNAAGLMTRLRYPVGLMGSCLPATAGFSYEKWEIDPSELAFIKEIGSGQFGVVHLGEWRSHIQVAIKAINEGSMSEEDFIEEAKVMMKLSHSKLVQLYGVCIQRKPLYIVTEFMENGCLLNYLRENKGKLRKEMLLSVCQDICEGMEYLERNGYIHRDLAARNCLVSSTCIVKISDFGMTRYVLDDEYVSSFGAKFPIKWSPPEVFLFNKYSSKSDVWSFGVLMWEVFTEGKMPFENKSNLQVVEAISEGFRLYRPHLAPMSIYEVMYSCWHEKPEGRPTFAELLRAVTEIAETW
Procedure: as §1

MEK2 = biological target: T5, MEK2 (Homo sapiens, UniProt P36507); assay: as above; type: biochemical
T5 construct: purchased Reaction Biology
T5 sequence (P36507 whole entry): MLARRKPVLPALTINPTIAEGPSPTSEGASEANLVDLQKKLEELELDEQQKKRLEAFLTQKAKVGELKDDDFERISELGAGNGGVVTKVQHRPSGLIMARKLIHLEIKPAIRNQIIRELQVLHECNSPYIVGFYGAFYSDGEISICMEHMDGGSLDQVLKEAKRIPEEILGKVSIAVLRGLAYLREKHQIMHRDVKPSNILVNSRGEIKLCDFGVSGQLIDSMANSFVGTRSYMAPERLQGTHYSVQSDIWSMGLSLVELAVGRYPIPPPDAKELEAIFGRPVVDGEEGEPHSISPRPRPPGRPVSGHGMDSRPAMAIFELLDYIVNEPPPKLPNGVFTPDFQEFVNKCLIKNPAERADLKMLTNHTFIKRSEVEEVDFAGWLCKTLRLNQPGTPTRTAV
Procedure: as §1

BRK = biological target: T6, BRK (Homo sapiens, UniProt Q13882); assay: as above; type: biochemical
T6 construct: purchased Reaction Biology
T6 sequence (Q13882 whole entry): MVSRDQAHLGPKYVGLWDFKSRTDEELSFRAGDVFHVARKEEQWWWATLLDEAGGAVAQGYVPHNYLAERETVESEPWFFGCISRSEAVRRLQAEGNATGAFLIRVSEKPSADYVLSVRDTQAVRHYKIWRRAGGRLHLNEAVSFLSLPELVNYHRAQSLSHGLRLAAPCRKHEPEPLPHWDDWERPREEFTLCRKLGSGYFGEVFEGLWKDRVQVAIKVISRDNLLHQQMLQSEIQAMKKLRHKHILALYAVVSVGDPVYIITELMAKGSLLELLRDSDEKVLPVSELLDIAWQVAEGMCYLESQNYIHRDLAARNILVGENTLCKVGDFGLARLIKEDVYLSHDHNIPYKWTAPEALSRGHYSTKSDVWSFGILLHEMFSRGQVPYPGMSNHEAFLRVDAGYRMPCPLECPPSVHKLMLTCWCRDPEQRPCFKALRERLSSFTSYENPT
Procedure: as §1

ERBB4 = biological target: T7, ERBB4 (Homo sapiens, UniProt Q15303); assay: as above; type: biochemical
T7 construct: purchased Reaction Biology
T7 sequence (Q15303 26-1308): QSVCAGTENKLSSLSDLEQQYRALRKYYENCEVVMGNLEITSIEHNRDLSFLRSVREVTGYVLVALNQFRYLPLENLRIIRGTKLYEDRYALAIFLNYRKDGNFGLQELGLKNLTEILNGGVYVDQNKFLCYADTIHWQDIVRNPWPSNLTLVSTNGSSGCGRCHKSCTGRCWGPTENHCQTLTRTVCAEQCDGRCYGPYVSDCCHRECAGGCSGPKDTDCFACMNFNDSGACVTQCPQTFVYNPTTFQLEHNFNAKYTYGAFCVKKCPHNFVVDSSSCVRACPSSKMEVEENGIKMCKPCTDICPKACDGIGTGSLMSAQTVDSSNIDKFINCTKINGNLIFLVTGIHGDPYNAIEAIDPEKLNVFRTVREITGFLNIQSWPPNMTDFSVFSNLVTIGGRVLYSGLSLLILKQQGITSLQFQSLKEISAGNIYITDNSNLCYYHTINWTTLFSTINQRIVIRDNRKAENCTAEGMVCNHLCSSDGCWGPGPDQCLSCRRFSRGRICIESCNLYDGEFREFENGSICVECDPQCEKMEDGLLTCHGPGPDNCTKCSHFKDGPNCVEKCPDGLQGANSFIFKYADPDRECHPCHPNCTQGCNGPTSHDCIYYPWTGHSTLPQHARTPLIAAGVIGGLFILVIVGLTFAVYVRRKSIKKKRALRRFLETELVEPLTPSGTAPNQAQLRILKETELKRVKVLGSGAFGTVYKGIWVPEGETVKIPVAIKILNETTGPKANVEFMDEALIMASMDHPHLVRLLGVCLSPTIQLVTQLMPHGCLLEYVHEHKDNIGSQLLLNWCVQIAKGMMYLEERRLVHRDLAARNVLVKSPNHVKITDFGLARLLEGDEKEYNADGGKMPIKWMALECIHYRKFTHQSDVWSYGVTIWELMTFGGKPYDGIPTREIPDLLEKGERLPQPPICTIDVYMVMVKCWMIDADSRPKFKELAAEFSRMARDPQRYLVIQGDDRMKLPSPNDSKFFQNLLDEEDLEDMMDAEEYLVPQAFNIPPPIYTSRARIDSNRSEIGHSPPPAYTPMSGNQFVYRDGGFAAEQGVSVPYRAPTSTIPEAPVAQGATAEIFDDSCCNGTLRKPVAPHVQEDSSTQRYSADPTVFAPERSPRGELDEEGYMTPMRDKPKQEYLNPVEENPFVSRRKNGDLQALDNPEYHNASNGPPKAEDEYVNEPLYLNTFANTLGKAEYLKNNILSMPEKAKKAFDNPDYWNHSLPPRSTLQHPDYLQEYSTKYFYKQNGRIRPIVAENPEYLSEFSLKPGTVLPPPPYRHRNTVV
Procedure: as §1

YES1 = biological target: T8, YES1 (Homo sapiens, UniProt P07947); assay: as above; type: biochemical
T8 construct: purchased Reaction Biology
T8 sequence (P07947 whole entry): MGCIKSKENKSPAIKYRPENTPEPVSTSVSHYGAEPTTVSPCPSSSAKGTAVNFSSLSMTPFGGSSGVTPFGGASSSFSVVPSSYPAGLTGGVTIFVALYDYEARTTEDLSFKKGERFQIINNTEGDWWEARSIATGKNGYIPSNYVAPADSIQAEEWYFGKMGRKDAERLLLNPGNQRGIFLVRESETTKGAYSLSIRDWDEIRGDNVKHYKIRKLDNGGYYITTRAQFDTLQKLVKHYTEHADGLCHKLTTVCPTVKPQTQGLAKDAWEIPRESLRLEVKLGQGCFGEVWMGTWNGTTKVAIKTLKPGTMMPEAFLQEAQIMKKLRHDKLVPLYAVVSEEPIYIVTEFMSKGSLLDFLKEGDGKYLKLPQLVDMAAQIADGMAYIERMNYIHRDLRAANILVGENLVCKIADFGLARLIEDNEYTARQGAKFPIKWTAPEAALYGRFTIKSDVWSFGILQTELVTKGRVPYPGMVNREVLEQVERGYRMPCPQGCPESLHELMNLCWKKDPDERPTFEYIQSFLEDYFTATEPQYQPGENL
Procedure: as §1

TMD8 tumor xenografts = assay: Tumor growth in TMD8 human diffuse large B cell lymphoma xenograft model; type: in vivo
Procedure: The human diffuse large B cell lymphoma TMD8 cells are maintained in suspension in RPMI 1640 with 10% Fetal Calf Serum (FCS) and 1% of Glutamax. The cells are transferred to a 50 mL Falcon tube and centrifuged at 1200 rpm for 5 min. The supernatant is removed and the cell pellet resuspended in PBS before being mixed with Matrigel (1/1, v/v). The cell suspension:Matrigel mixture at a final target cell concentration of 40×10^6 cells/mL is kept on ice until the s.c. injections (250 μL/mouse) to maintain the Matrigel solution in a liquid state.
The animals are female BalB/c mice aged 9 weeks-old at the day of injection. The mice are housed in individually ventilated cage racks with HEPA filtered air supply and all materials that contact the immunodeficient animals are steam sterilized. This includes cages, bedding, water and feed. The animal room conditions are set as follows. The temperature is 22±2° C., and the relative humidity is 50±10%. The light/dark cycle is 12 h/12 h, and the air change rate is 12 to 15 cycles/hour of filtered, 100% fresh air. All animals had free access to sterilized water and irradiated controlled food (reference A04CSafe, Augy-France).
The compound of Formula I is formulated in methylcellulose/Tween80/Water (0.6%/0.5%/98.5%; w/w/v). The vehicle for the dosing of control group is methylcellulose/Tween 80/Water (0.6%/0.5%/98.5%; w/w/v), 10 mL/kg. 151.4 mg of the compound of Formula I are weighed and formulated with 50.4 mL of vehicle to obtain a solution at 3 mg/mL of free base. For the 1 mg/mL suspension preparation, 50.1 mg of the compound of Formula I are weighed and solubilized in 50.1 mL of vehicle. […]
Tumor width and length are measured with digital calipers. The tumor volume in mm^3 is calculated by the formula: Volume=0.52×(width)^2×length[…], width and length measured in mm. […]
Tumors are collected from each mouse at Day 28 post the cell injection. […] Tumor weight statistical analysis between each group is determined by a 1-way ANOVA and by 2-Way ANOVA with repeated measures for the mice weight and the tumor volume monitoring, followed by a Dunnett's test. […]

[2] = 1.0 μM compound, ATP close to Km, read-out: Percent of Control (POC)

In the case of COc1ccc(F)cc1C(=O)NCc1ccc(-c2nn([C@@H](C)C(F)(F)F)c(N)c2C(N)=O)cc1 [compound of Formula I, (S)-5-amino-3-(4-((5-fluoro-2-methoxybenzamido)methyl)phenyl)-1-(1,1,1-trifluoropropan-2-yl)-1H-pyrazole-4-carboxamide], the “tumor growth during the dosing period” value ([1]; 10 mg/kg BID) is reported as “inhibition of tumor growth”, the “tumor size compared with ibrutinib-treated animals” value ([1]; 10 mg/kg BID, p=0.0008, ANOVA with Tukey post-hoc test) is reported as “significantly smaller than those from animals treated with ibrutinib” and the “tumor growth during the dosing period” value ([1]; 50 mg/kg BID) is reported as “inhibition of tumor growth”. The “tumor size compared with ibrutinib-treated animals” value ([1]; 50 mg/kg BID, p<0.0001, ANOVA with Tukey post-hoc test) was “significantly smaller than those from animals treated with ibrutinib”, the “tumor growth after dosing had stopped” value ([1]; after the 28-day dosing period) was “maintained even after dosing had stopped” and the IC50 (TEC) was 1230 nM. For the same compound, the remaining activity at 1 µM (CSK; [2]) was < 50%, the IC50 (CSK; ATP near Km) was 552 nM and the remaining activity at 1 µM (MEK1; [2]) was < 50%. For the same compound, the IC50 (MEK1; ATP near Km) was 147 nM, the remaining activity at 1 µM (FYN; [2]) was < 50% and the IC50 (FYN; ATP near Km) was 1710 nM. The remaining activity at 1 µM (TXK; [2]) was < 50%, the IC50 (TXK; ATP near Km) was 209 nM and the remaining activity at 1 µM (MEK2; [2]) was < 50%. For the same compound, the IC50 (MEK2; ATP near Km) was 82.7 nM, the remaining activity at 1 µM (BRK; [2]) was < 50% and the IC50 (BRK; ATP near Km) was 54.2 nM. The remaining activity at 1 µM (ERBB4; [2]) was < 50%, the IC50 (ERBB4; ATP near Km) was 13.2 nM and the remaining activity at 1 µM (YES1; [2]) was < 50%. The IC50 (YES1; ATP near Km) was 157 nM, the “TGI vs the vehicle treated group” value (TMD8 tumor xenografts; 10 mg/kg oral BID for 14 days) was 35% and the “TGI vs the vehicle treated group” value (TMD8 tumor xenografts; 30 mg/kg oral BID for 14 days) was 87%. The tolerability (TMD8 tumor xenografts; chronic oral BID administration for 14 days at 10 and 30 mg/kg) was “well tolerated”.

Source: patent publication US12268666B2, “Spray-dried dispersions, formulations, and polymorphs of (S)-5-amino-3-(4-((5-fluoro-2-methoxybenzamido)methyl)phenyl)-1-(1,1,1-trifluoropropan-2-yl)-1H-pyrazole-4-carboxamide” (Loxo Oncology, Inc., priority 2018, dated 2025)
